Measured values published in PubChem BioAssay AID342 (DTP/NCI, 2004).
Values joined by “and” are separate entries in the source; they are usually repeats but may differ in a detail not shown here. Equal values may be shown once.

System: Swiss mice, Sarcoma 180 sc, mean tumor weight T/C
Test: NCI In Vivo Anticancer Drug Screen. Data for tumor model Sarcoma 180 (subcutaneous) in Swiss mice
Settings: endpoint: mean tumor weight, higher = larger tumour
Procedure, shortened: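 Transplantable tumors were established in mice, compound was given, then survival or tumor size was recorded. The treated value was divided by the vehicle-control value.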

## C[C@H]1C[C@@H]2[C@H]([C@@H](O)C[C@@]3(C)[C@H]2CC[C@]3(O)C(=O)CO)[C@@]2(C)C=CC(=O)C=C12
dose: 6.25 mg/kg/injection, schedule: Q#A X014 (sc), vehicle: steriod suspending solution
  T/C: 82 % of control
dose: 12.5 mg/kg/injection, schedule: Q01DX007 (sc), vehicle: water
  T/C: 45 % of control
dose: 12.5 mg/kg/injection, schedule: Q#A X014 (sc), vehicle: steriod suspending solution
  T/C: 40 % of control
dose: 25.0 mg/kg/injection, schedule: Q01DX007 (sc), vehicle: water
  T/C: 41 % of control
dose: 25.0 mg/kg/injection, schedule: Q#A X014 (sc), vehicle: steriod suspending solution
  T/C: 33 % of control
dose: 50.0 mg/kg/injection, schedule: Q01DX007 (sc), vehicle: water
  T/C: 39 % of control
dose: 50.0 mg/kg/injection, schedule: Q#A X014 (sc), vehicle: steriod suspending solution
  T/C: 27 % of control
dose: 100.0 mg/kg/injection, schedule: Q01DX007 (sc), vehicle: water
  T/C: 18 % of control
dose: 100.0 mg/kg/injection, schedule: Q#A X014 (sc), vehicle: steriod suspending solution
  T/C: 17 % of control

## Nc1nc2n[nH]nc2c(=O)[nH]1
dose: 12.5 mg/kg/injection, schedule: Q01DX007 (ip), vehicle: other
  T/C: 118 % of control
dose: 12.5 mg/kg/injection, schedule: Q#A X014 (ip), vehicle: other
  T/C: 101 % of control
dose: 15.75 mg/kg/injection, schedule: Q01DX007 (ip), vehicle: other
  T/C: 78 % of control
dose: 25.0 mg/kg/injection, schedule: Q01DX007 (ip), vehicle: other
  T/C: 85 % of control
dose: 25.0 mg/kg/injection, schedule: Q#A X014 (ip), vehicle: other
  T/C: 68 % of control
dose: 31.5 mg/kg/injection, schedule: Q01DX007 (ip), vehicle: carboxymethylcellulose (CMC)
  T/C: 109 % of control
dose: 31.5 mg/kg/injection, schedule: Q01DX007 (ip), vehicle: other
  T/C: 69 % of control
dose: 31.5 mg/kg/injection, schedule: Q01DX007 (ip), vehicle: water
  T/C: 43 % of control
dose: 50.0 mg/kg/injection, schedule: Q01DX007 (ip), vehicle: other
  T/C: 70 % of control
dose: 50.0 mg/kg/injection, schedule: Q#A X014 (ip), vehicle: other
  T/C: 38 % of control
dose: 50.4 mg/kg/injection, schedule: Q01DX007 (ip), vehicle: other
  T/C: 84 % of control
dose: 63.0 mg/kg/injection, schedule: Q01DX007 (ip), vehicle: carboxymethylcellulose (CMC)
  T/C: 58 % of control
dose: 63.0 mg/kg/injection, schedule: Q01DX007 (ip), vehicle: other
  T/C: 54 % of control and 60 % of control
dose: 63.0 mg/kg/injection, schedule: Q01DX007 (ip), vehicle: water
  T/C: 57 % of control
dose: 84.0 mg/kg/injection, schedule: Q01DX007 (ip), vehicle: other
  T/C: 63 % of control
dose: 94.5 mg/kg/injection, schedule: Q01DX007 (ip), vehicle: carboxymethylcellulose (CMC)
  T/C: 54 % of control
dose: 94.5 mg/kg/injection, schedule: Q01DX007 (ip), vehicle: water
  T/C: 15 % of control
dose: 100.0 mg/kg/injection, schedule: Q01DX007 (ip), vehicle: other
  T/C: 95 % of control and 116 % of control
dose: 100.0 mg/kg/injection, schedule: Q#A X014 (ip), vehicle: other
  T/C: 64 % of control
dose: 126.0 mg/kg/injection, schedule: Q01DX007 (ip), vehicle: carboxymethylcellulose (CMC)
  T/C: 39 % of control
dose: 126.0 mg/kg/injection, schedule: Q01DX007 (ip), vehicle: other
  T/C: 33 % of control
dose: 126.0 mg/kg/injection, schedule: Q01DX007 (ip), vehicle: water
  T/C: 18 % of control
dose: 200.0 mg/kg/injection, schedule: Q01DX007 (ip), vehicle: other
  T/C: 70 % of control
dose: 400.0 mg/kg/injection, schedule: Q01DX007 (ip), vehicle: other
  T/C: 52 % of control

## CC1=C2C(=C[C@@](C)(CO)[C@@H]2O)C(=O)[C@](C)(O)C12CC2
dose: 0.8 mg/kg/injection, schedule: Q01DX007 (ip), vehicle: saline
  T/C: 67 % of control and 78 % of control
dose: 1.6 mg/kg/injection, schedule: Q01DX007 (ip), vehicle: saline
  T/C: 45 % of control

## CCC(=O)OCC1OC(n2cnc3c(=S)nc(N)[nH]c32)C(OC(=O)CC)C1OC(=O)CC (centres undefined)
dose: 1.0 mg/kg/injection, schedule: Q01DX007 (ip), vehicle: carboxymethylcellulose (CMC)
  T/C: 61 % of control
dose: 2.0 mg/kg/injection, schedule: Q01DX007 (ip), vehicle: carboxymethylcellulose (CMC)
  T/C: 65 % of control
dose: 5.0 mg/kg/injection, schedule: Q01DX007 (ip), vehicle: carboxymethylcellulose (CMC)
  T/C: 57 % of control and 58 % of control
dose: 11.0 mg/kg/injection, schedule: Q01DX007 (ip), vehicle: carboxymethylcellulose (CMC)
  T/C: 22 % of control

## NC(=O)Oc1ccccc1
dose: 220.0 mg/kg/injection, schedule: Q01DX007 (ip), vehicle: other
  T/C: 69 % of control
dose: 330.0 mg/kg/injection, schedule: Q01DX007 (ip), vehicle: other
  T/C: 84 % of control
dose: 492.0 mg/kg/injection, schedule: Q01DX007 (ip), vehicle: other
  T/C: 65 % of control

## Cc1cc2nc3c(=O)[nH]c(=O)nc-3n(CCOC(=O)CCC(=O)O)c2cc1C
dose: 14.37 mg/kg/injection, schedule: Q#A X014 (ip), vehicle: carboxymethylcellulose (CMC)
  T/C: 109 % of control
dose: 28.75 mg/kg/injection, schedule: Q#A X014 (ip), vehicle: carboxymethylcellulose (CMC)
  T/C: 122 % of control
dose: 57.5 mg/kg/injection, schedule: Q#A X014 (ip), vehicle: carboxymethylcellulose (CMC)
  T/C: 87 % of control
dose: 115.0 mg/kg/injection, schedule: Q#A X014 (ip), vehicle: carboxymethylcellulose (CMC)
  T/C: 56 % of control

## CCCCCCCCCCC(O)CN1CCN(c2ccc(C)cc2)CC1 (centres undefined)
dose: 110.0 mg/kg/injection, schedule: Q01DX007 (ip), vehicle: olive oil, sesame oil, peanut oil
  T/C: 63 % of control
dose: 168.0 mg/kg/injection, schedule: Q01DX007 (ip), vehicle: olive oil, sesame oil, peanut oil
  T/C: 51 % of control
dose: 250.0 mg/kg/injection, schedule: Q01DX007 (ip), vehicle: olive oil, sesame oil, peanut oil
  T/C: 77 % of control
